Values after ≈ are worked out from the molar mass of the structure shown. “Also recorded” adds a separate entry of the source. Like-named read-outs stand apart in the source and are kept apart here. Where a SMILES comes first, the peptide text is derived from it. [ ]: non-standard residue; d: D form. The star is where a group is joined. Orn(α-tetramethylguanidino) = CN(C)C(=N[C@@H](CCCN)C(=O)*)N(C)C; Orn = NCCC[C@H](N)C(=O)O
What was measured:
[1] = test system: E. coli ATCC 25922; conditions: cited from earlier work
Description: (§1) Antimicrobial peptides (AMPs) are considered as promising alternatives to common antibiotics that threateningly lose their therapeutic potentials against multidrug-resistant pathogens (Fox, [2013]; Wang et al., [2015]). In contrast to approved therapeutic peptide hormones, antimicrobial peptides have to be administered at much higher doses, which may amplify general drawbacks of peptide therapeutics. For example, the diabetes peptide drugs exenatide and pramlintide are given at daily doses of 20 μg (Byetta®; ~0.5 μg/kg) and 120 μg (Symlin®; ~1.5 μg/kg; Heine et al., [2005]; Hay et al., [2015]) ... || Apidaecin analogs Api88 and Api137 are similarly active against Gram-negative bacteria with a tendency of higher activity of Api88 against K. pneumoniae (Czihal et al., [2012]; Berthold et al., [2013]). However, Api88 carries a C-terminal amide that is responsible for its very fast proteolytic cleavage in serum, the supernatant obtained after complete coagulation and centrifugation of blood. The in vitro serum stability assay, which is an important in vitro criterion to select therapeutic peptides for systemic applications, yielded very short half-life times of 5 min for Api88, which indicate ...

[2] = mouse, in vivo, ip; cited from earlier work
Description: Apidaecin analogs Api88 and Api137 are similarly active against Gram-negative bacteria with a tendency of higher activity of Api88 against K. pneumoniae (Czihal et al., [2012]; Berthold et al., [2013]). However, Api88 carries a C-terminal amide that is responsible for its very fast proteolytic cleavage in serum, the supernatant obtained after complete coagulation and centrifugation of blood. The in vitro serum stability assay, which is an important in vitro criterion to select therapeutic peptides for systemic applications, yielded very short half-life times of 5 min for Api88, which indicate ...

[3] = molecular target: 70S ribosomes; conditions: fluorescence polarization assay; ref Krizsan et al., 2014; cited from earlier work
Description: Antimicrobial peptides (AMPs) are considered as promising alternatives to common antibiotics that threateningly lose their therapeutic potentials against multidrug-resistant pathogens (Fox, [2013]; Wang et al., [2015]). In contrast to approved therapeutic peptide hormones, antimicrobial peptides have to be administered at much higher doses, which may amplify general drawbacks of peptide therapeutics. For example, the diabetes peptide drugs exenatide and pramlintide are given at daily doses of 20 μg (Byetta®; ~0.5 μg/kg) and 120 μg (Symlin®; ~1.5 μg/kg; Heine et al., [2005]; Hay et al., [2015]) ...

[4] = test system: E. coli ATCC 25922; conditions: same infection model; ref Schmidt et al., 2016; cited from earlier work
Description: as §1, with “[…] Api137 appeared more efficient in this septicemia model due to” for “For example,”, “better scores obtained” for “diabetes peptide drugs exenatide and pramlintide are given”, “at” for “at daily doses of 20 μg (Byetta®; ~0.5 μg/kg) and 120 μg (Symlin®; ~1.5 μg/kg; Heine et al., [2005]; Hay et al., [2015])”

[5] = mouse, in vivo, ip, 5 mg/kg; cited from earlier work
Description: The recovery rates obtained from the spiked samples, were used to calculate the total amounts of intact peptides in blood, liver, and kidneys after intraperitoneal administration (Figures 6B–E, Tables S10, S11). The relative recovery in the studied organs and blood was only around 1.5 ± 0.6–2.1 ± 0.7% of the injected peptide amounts. Considering the mean weight of 29 g per mouse in this study and the weights of blood, liver, two kidneys, and brain with 2.2, 1.5, 0.5, and 0.5 g, respectively (~16% of the total weight), around 12% of the injected peptide quantities were detected in the samples c ...

[6] = in vitro; assay type: in vitro ADME, CD-1 mice; conditions: female, CD-1, mouse, cerebrospinal or other body fluid
Protocol: Peritoneal lavage (1.5–2 mL) were collected from three euthanized female CD-1 mice (14 weeks, 32–33 g) after injecting sterile PBS intraperitoneal (4 mL). Peptides were incubated with aliquots (95 μL) of fresh lavage (75 μg/mL, 37°C, 750 rpm). After 0, 30, and 60 min trichloroacetic acid (25 μL, 15% w/v) was added to the samples to precipitate proteins, incubated on ice (10 min), and centrifuged (5 min, 12.400 × g). Supernatants were neutralized with sodium hydroxide (1 mol/L) and analyzed by RP-HPLC using a Poroshell 120 SB-C18-column (2.1 mm internal diameter, 100 mm length, 2.7 μm particle size, 12 nm pore size, Agilent Technologies Inc., Santa Clara, CA, USA) at 60°C and an aqueous acetonitrile gradient containing trifluoroacetic acid (0.1%, v/v). Absorbance was recorded at a wavelength of 214 nm.

[7] = cited from earlier work
Description: Proline-rich antimicrobial peptides (PrAMPs) represent promising alternative therapeutic options for the treatment of multidrug-resistant bacterial infections. PrAMPs are predominantly active against Gram-negative bacteria by inhibiting protein expression via at least two different modes of action, i.e., blocking the ribosomal exit tunnel of 70S ribosomes (oncocin-type binding) or inhibiting the assembly of the 50S ribosomal subunit (apidaecin-type binding). The in vivo efficacy and favorable biodistribution of oncocins confirmed the therapeutic potential of short PrAMPs for the first time, wh ... || Antimicrobial peptides (AMPs) are considered as promising alternatives to common antibiotics that threateningly lose their therapeutic potentials against multidrug-resistant pathogens (Fox, [2013]; Wang et al., [2015]). In contrast to approved therapeutic peptide hormones, antimicrobial peptides have to be administered at much higher doses, which may amplify general drawbacks of peptide therapeutics. […]

[8] = fresh peritoneal lavage (PBS injected intraperitoneal), ex vivo; conditions: CD-1 mice, 37°C, up to 60 min
[9] = plasma after intravenous administration; conditions: CD-1 mice, up to 60 min
[10] = Lithium-heparin plasma after intraperitoneal administration; conditions: NMRI mice, up to 90 min
[11] = liver homogenates after intraperitoneal administration; conditions: NMRI mice, up to 90 min
[12] = mouse serum in vitro; conditions: cited from earlier work
[13] = metabolites, in vitro, no method in this paper, reference not given
[14] = E. coli ATCC 25922, ref Knappe et al., 2016c

fragment found [8]	Molecule	MIC [1, 13]	Maximum plasma level reported for oncocins, compared with lower dose groups [2]	maximum plasma levels relative to Api88 and Api137	Kd [3]	MIC [1, 14]	Dose rescuing all animals [4]	Recovery rate of injected peptide [5]	remaining at 1 h, 75 μg/mL [6]	fragment found [10]	fragment found [11]	fragment found [12]	other results
–	CC[C@H](C)[C@H](NC(=O)[C@H](Cc1ccc(O)cc1)NC(=O)[C@@H](NC(=O)[C@@H]1CCCN1C(=O)[C@H](CCCNC(=N)N)NC(=O)[C@H](CC(N)=O)NC(=O)[C@H](CC(N)=O)NC(=O)[C@H](CCCN)N=C(N(C)C)N(C)C)C(C)C)C(=O)N1CCC[C@H]1C(=O)N[C@@H](CCCNC(=N)N)C(=O)N1CCC[C@H]1C(=O)N[C@@H](CCCNC(=N)N)C(=O)N1CCC[C@H]1C(=O)N1CCC[C@H]1C(=O)N[C@@H](Cc1c[nH]cn1)C(=O)N1CCC[C@H]1C(=O)O [Api1-16] ({Orn(α-tetramethylguanidino)}-NNRPVYIPRPRPPHP-OH)	> 128 µg/mL	–	–	–	–	–	–	–	–	–	–	–
–	CC[C@H](C)[C@H](NC(=O)[C@H](Cc1ccc(O)cc1)NC(=O)[C@@H](NC(=O)[C@@H]1CCCN1C(=O)[C@H](CCCNC(=N)N)NC(=O)[C@H](CC(N)=O)NC(=O)[C@H](CC(N)=O)NC(=O)[C@H](CCCN)N=C(N(C)C)N(C)C)C(C)C)C(=O)N1CCC[C@H]1C(=O)N[C@@H](CCCNC(=N)N)C(=O)N1CCC[C@H]1C(=O)N[C@@H](CCCNC(=N)N)C(=O)N1CCC[C@H]1C(=O)N1CCC[C@H]1C(=O)N[C@@H](Cc1c[nH]cn1)C(=O)N1CCC[C@H]1C(=O)N[C@@H](CCCNC(=N)N)C(=O)O [Api1-17] ({Orn(α-tetramethylguanidino)}-NNRPVYIPRPRPPHPR-OH)	64 µg/mL	–	–	–	–	–	–	–	–	–	–	–
–	CC[C@H](C)[C@H](NC(=O)[C@H](CCCN)NC(=O)[C@H](CCCNC(=N)N)NC(=O)[C@@H]1CCCN1C(=O)[C@@H]1CCCN1C(=O)[C@H](CCCNC(=N)N)NC(=O)[C@@H]1CCCN1C(=O)[C@H](CCCNC(=N)N)NC(=O)[C@@H]1CCCN1C(=O)[C@H](CC(C)C)NC(=O)[C@H](Cc1ccc(O)cc1)NC(=O)[C@@H]1CCCN1C(=O)[C@@H]1CCCN1C(=O)[C@H](CCCCN)NC(=O)[C@H](CC(=O)O)NC(=O)[C@@H](N)C(C)C)C(=O)N[C@@H](Cc1ccc(O)cc1)C(=O)N[C@@H](CC(N)=O)C(=O)N[C@@H](CCCN)C(N)=O [Onc72, reference compound] (H-VDKPPYLPRPRPPR[Orn]IYN[Orn]-NH2; N-terminus and C-terminus assumed)	–	6 µg/mL	< 10 fold	450 nM	16 µg/mL (≈ 6.94 µM)	5 mg/kg	47%	> 89%	–	–	–	Plasma level reported for oncocin, compared with high dose groups [2]: 18000 ng/mL
–	CC[C@H](C)[C@H](NC(=O)[C@@H](CCCNC(=N)N)NC(=O)[C@H](CCCNC(=N)N)NC(=O)[C@@H]1CCCN1C(=O)[C@@H]1CCCN1C(=O)[C@H](CCCNC(=N)N)NC(=O)[C@@H]1CCCN1C(=O)[C@H](CCCNC(=N)N)NC(=O)[C@@H]1CCCN1C(=O)[C@H](CC(C)C)NC(=O)[C@H](Cc1ccc(O)cc1)NC(=O)[C@@H]1CCCN1C(=O)[C@@H]1CCCN1C(=O)[C@H](CCCCN)NC(=O)[C@H](CC(=O)O)NC(=O)[C@@H](N)C(C)C)C(=O)N[C@@H](Cc1ccc(O)cc1)C(=O)N[C@@H](CC(N)=O)C(=O)N[C@H](CCCNC(=N)N)C(N)=O [Onc112, reference compound] (H-VDKPPYLPRPRPPR[dR]IYN[dR]-NH2; N-terminus and C-terminus assumed)	–	8 µg/mL	< 10 fold	90 nM	4 µg/mL (≈ 1.67 µM)	2.5 mg/kg	32%	> 89%	–	–	–	Serum half-life time [7]: exceeded 8 h
Api1-17, major, 30 min	gu-ONNRPVYIPRPRPPHPRL-NH2	–	–	–	–	–	–	–	–	Api1-16, major, 10 min; also recorded: Api2-16; also recorded: Api7-18; also recorded: Api3-18; also recorded: Api7-12; also recorded: Api1-6; also recorded: Api1-17, major, 10 min	Api1-17, major; also recorded: Api1-16, major	Api1-17, major; also recorded: Api1-16, major	fragment found [9]: Api1-17, major, 5 min; also recorded: Api1-16, major, 5 min
Api1-17, major, 30 min	gu-ONNRPVYIPRPRPPHPRL-OH	–	–	–	–	–	–	–	–	Api1-17, major, 10 min; also recorded: Api1-16, major, 10 min; also recorded: Api7-12, minor; also recorded: Api2-16, minor; also recorded: Api2-18, minor	Api1-17, major; also recorded: Api1-16, major	Api1-17, major; also recorded: Api1-16, major	–

From article PMC5357639 (Frontiers in Chemistry, 2017)
